This note sets out measurements from patent US12714721B2, “Methods of treatment of a cytokine storm” (Loma Linda University Health, priority 2020, dated 2026).

The test system of the assay is LPS-treated animals. Nature of the assay: Survival study of LPS-treated animals with teriflunomide. Particulars: 20 mg/kg of LPS i.p. and 4 mg of teriflunomide. It is filed as in vivo. As to the method:
A survival study was performed with sixteen animals per group of LPS-treated animals following no treatment and treatment with teriflunomide. The control group received 20 mg/kg of LPS i.p. and no treatment; whereas the teriflunomide group received 20 mg/kg of LPS and 4 mg of teriflunomide. None of the control animals lived up to 24 hours, whereas 6 of the teriflunomide treat animals lived out to 96 hours at which time they appeared normal. The P value for the difference was less than 0.0021. FIG. 20 is a graphical representation of the survival of LPS-treated animals following no treatment and treatment with teriflunomide. All of the animals were treated with 20 mg/kg of LPS i.p. Kaplan-Meier survival in response to LPS administration. Comparison of the trend of survival curve was done using the log-rank (Mantel-Cox) test (recommended), and ** p<0.01.

For the setting “Kaplan-Meier”, `C/C(O)=C(\C#N)C(=O)Nc1ccc(C(F)(F)F)cc1` [teriflunomide] registered a Median survival of 48.00. For the same compound, the “animals that lived out to 96 hours” value (sixteen animals per group) is 6.
